Consider 28 compounds from patent publication US9303045B2, “5-HT3 receptor antagonists” (Takeda Pharmaceutical Company Limited, priority 2013, dated 2016).

The target of this experiment is 5HT3a receptor expressed in HEK-293T cells (Homo sapiens (Human), UniProt P46098). Put plainly: Inhibition of Ca flux activity of 5HT3 in vitro assay. It is filed as cell-based. To be noted: calcium flux, 5HT 216 nM, approximate values. Here is the method:
Inhibition of Ca Flux Activity of 5HT3 In Vitro Assay
The 5HT3 antagonist activity of the compounds of the invention was determined by measuring the ability of the compounds to inhibit the calcium flux activity of […] receptor expressed in HEK-293T cells. HEK-293T cells were transfected with the 5HT3a expression construct using Xtreme Gene 9 (Roche) in 150 mm tissue culture treated plates and incubated for 24 hours at 37° C. Cells were then split and plated at a density of 60K cells/well in poly-lysine coated, black 96-well plates with clear bottoms (BD BioSciences) and incubated overnight at 37° C. Growth media was removed and cells loaded with 200 uL calcium indicator dye in HBSS containing 20 mM HEPES (Calcium 5 Assay kit, Molecular Devices) and incubated at 37° C. for 1 hour. While cells were incubating, the 10× antagonist and agonist/antagonist addition plates were made. For 10× antagonist plate: half log serial dilutions (final concentrations range from 10^−7 through 10^−10 with the bottom well a negative, no ligand control) were made from test compounds in DMSO at a 1000× concentration and then diluted to 10× in HBSS/20 mM HEPES. For addition plate: 5HT was diluted to 100× in HBSS/20 mM HEPES (final concentration in the assay—216 nM) and 15 uL was added to each well of the addition plate, 15 uL of 10× compound was also added to the addition plate, and finally 120 uL of HBSS/20 mM HEPES (for a total of 150 uL). Cells were then removed from the incubator and equilibrated to room temperature for 10 minutes, then 22.5 uL of 10× test compounds were added in triplicate to the plates and incubated at room temperature for 10 minutes (Tropisetron was used as a positive control in every assay). Test plate and addition plate were loaded into the FlexStation III (Molecular Devices), and using the fluidics, 22.5 uL compound additions were made (at t=˜17 seconds), and fluorescence was measured for 90 seconds, reading every 2.2 seconds. Data sets were analyzed as max minus min using Software Max Pro (Molecular Devices). IC50 curves were generated using non-linear regression in GraphPad Prism.
In general terms: A change in cytosolic calcium serves as a functional read-out for many receptors and channels.

5HT3a receptor expressed in HEK-293T cells, sequence (P46098 24-478): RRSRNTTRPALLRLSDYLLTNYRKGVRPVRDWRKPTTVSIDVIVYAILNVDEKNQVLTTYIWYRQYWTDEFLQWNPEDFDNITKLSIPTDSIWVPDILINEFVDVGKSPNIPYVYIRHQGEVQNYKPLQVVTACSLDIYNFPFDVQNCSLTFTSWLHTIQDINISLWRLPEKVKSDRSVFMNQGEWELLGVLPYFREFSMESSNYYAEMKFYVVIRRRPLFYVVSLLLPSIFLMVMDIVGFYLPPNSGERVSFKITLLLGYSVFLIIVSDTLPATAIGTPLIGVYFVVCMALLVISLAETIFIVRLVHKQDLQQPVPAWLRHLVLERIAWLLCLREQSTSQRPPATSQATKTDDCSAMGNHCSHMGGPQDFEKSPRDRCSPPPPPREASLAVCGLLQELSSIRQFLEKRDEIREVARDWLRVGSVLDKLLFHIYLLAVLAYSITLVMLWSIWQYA

Consider `CC(C)S(=O)(=O)n1cc(C(=O)NC2C[C@H]3COC[C@@H](C2)N3C)c2ccccc21` (stereo partly shown), for which the IC50 amounted to 0.57 nM.
As for `CN1[C@@H]2COC[C@H]1CC(NC(=O)c1cn(CC(F)(F)F)c3ccccc13)C2` (stereo partly shown), the figure is 0.68 nM; as for `CC(C)S(=O)(=O)n1cc(C(=O)O[C@H]2C[C@H]3COC[C@@H](C2)N3)c2ccccc21`, 1.8 nM; as for “5-fluoro-N-((1R,5S,7S)-9-methyl-d3-3-oxa-9-azabicyclo[3.3.1]nonan-7-yl)-1-(2,2,2-trifluoroethyl)-1H-pyrrolo[2,3-b]pyridine-3-carboxamide 2,2,2-trifluoroacetate [Example 18]”, 4.06 nM.
Regarding `O=C(OC1C[C@H]2COC[C@@H](C1)N2)c1cn(CC(F)F)c2ccc(F)cc12` (stereo partly drawn) [Example 31, (1R,5S,7S)-3-oxa-9-azabicyclo[3.3.1]nonan-7-yl 1-(2,2-difluoroethyl)-5-fluoro-1H-indole-3-carboxylate, 2,2,2-trifluoroacetate], the IC50 was found to be 1.29 nM.
As to `CN1C2COCC1CC(NC(=O)c1cn(CC(F)(F)F)c3ccc(F)cc13)C2` [Example 35, 5-fluoro-N-((1R,5S,7S)-9-methyl-3-oxa-9-azabicyclo[3.3.1]nonan-7-yl)-1-(2,2,2-trifluoroethyl)-1H-indole-3-carboxylate, 2,2,2-trifluoroacetate], the IC50 stood at 0.54 nM.
As for `CN1[C@@H]2COC[C@H]1CC(NC(=O)c1cn(S(C)(=O)=O)c3ccc(F)cc13)C2` (stereo partly drawn) [Example 36, 5-fluoro-N-((1R,5S,7S)-9-methyl-3-oxa-9-azabicyclo[3.3.1]nonan-7-yl)-1-(methylsulfonyl)-1H-indole-3-carboxylate, 2,2,2-trifluoroacetate], the figure is 0.5 nM; as for `CS(=O)(=O)n1cc(C(=O)OC23CCN(CC2)CC3)c2cc(F)ccc21` [Example 37, quinuclidin-4-yl 5-fluoro-1-(methylsulfonyl)-1H-indole-3-carboxylate, 2,2,2-trifluoroacetate], over 1000 nM.
In the case of `O=C(NC1C[C@H]2COC[C@@H](C1)N2)c1cn(CC(F)(F)F)c2ncccc12` (stereo partly drawn) [Example 38, N-((1R,5S,7S)-3-oxa-9-azabicyclo[3.3.1]nonan-7-yl)-1-(2,2,2-trifluoroethyl)-1H-pyrrolo[2,3-b]pyridine-3-carboxamide, 2,2,2-trifluoroacetate], the IC50 came out at 1.82 nM.
Regarding `O=C(NC1C[C@H]2COC[C@@H](C1)N2)c1cn(CC(F)F)c2ncc(F)cc12` (stereo partly drawn) [Example 39, N-((1R,5S,7S)-3-oxa-9-azabicyclo[3.3.1]nonan-7-yl)-1-(2,2-difluoroethyl)-5-fluoro-1H-pyrrolo[2,3-b]pyridine-3-carboxamide, 2,2,2-trifluoroacetate], the IC50 is 24.1 nM.
For `CN1C2CCC1CC(OC(=O)c1cn(CC(F)F)c3ccccc13)C2` [Example 40, (1R,3R,5S)-8-methyl-8-azabicyclo[3.2.1]octan-3-yl 1-(2,2-difluoroethyl)-1H-indole-3-carboxylate, 2,2,2-trifluoroacetate] the value was 0.78 nM; for `CN1[C@@H]2CC[C@H]1CC(OC(=O)c1cn(CC(F)(F)F)c3ncccc13)C2` (stereo partly drawn) [Example 41, (1R,3R,5S)-8-methyl-8-azabicyclo[3.2.1]octan-3-yl 1-(2,2,2-trifluoroethyl)-1H-pyrrolo[2,3-b]pyridine-3-carboxylate, 2,2,2-trifluoroacetate], 5.56 nM.
As for `CN1[C@@H]2CC[C@H]1CC(OC(=O)c1cn(C3CCOC3)c3ccccc13)C2` (stereo partly drawn) [Example 42, (1R,3R,5S)-8-methyl-8-azabicyclo[3.2.1]octan-3-yl 1-(tetrahydrofuran-3-yl)-1H-indole-3-carboxylate, 2,2,2-trifluoroacetate], the figure is 0.94 nM.
As for `CN1[C@@H]2CC[C@H]1CC(OC(=O)c1c(Cl)n(CC(F)F)c3ccccc13)C2` (stereo partly drawn) [Example 43, (1R,3R,5S)-8-methyl-8-azabicyclo[3.2.1]octan-3-yl 2-chloro-1-(2,2-difluoroethyl)-1H-indole-3-carboxylate, 2,2,2-trifluoroacetate], the figure is 1.02 nM; as for `CN1[C@@H]2CC[C@H]1CC(OC(=O)c1c(Cl)n(CC(F)(F)F)c3ccccc13)C2` (stereo partly drawn) [Example 44, (1R,3R,5S)-8-methyl-8-azabicyclo[3.2.1]octan-3-yl 2-chloro-1-(2,2,2-trifluoroethyl)-1H-indole-3-carboxylate, 2,2,2-trifluoroacetate], 1.87 nM; as for `O=C(OC1C[C@H]2CC[C@@H](C1)N2)c1cn(CC(F)F)c2ccccc12` (stereo partly drawn) [Example 45, (1R,3R,5S)-8-azabicyclo[3.2.1]octan-3-yl 1-(2,2-difluoroethyl)-1H-indole-3-carboxylate, 2,2,2-trifluoroacetate], 3.09 nM.
As to `CN1[C@@H]2COC[C@H]1CC(OC(=O)c1cn(S(C)(=O)=O)c3ccccc13)C2` (stereo partly drawn) [Example 47, (1R,5S,7S)-9-methyl-3-oxa-9-azabicyclo[3.3.1]nonan-7-yl 1-(methylsulfonyl)-1H-indole-3-carboxylate, 2,2,2-trifluoroacetate], the IC50 was found to be 0.33 nM.
As for `CN1[C@@H]2COC[C@H]1C[C@@H](OC(=O)c1cn(CC(F)F)c3ncccc13)C2` [Example 48, (1R,5S,7S)-9-methyl-3-oxa-9-azabicyclo[3.3.1]nonan-7-yl 1-(2,2-difluoroethyl)-1H-pyrrolo[2,3-b]pyridine-3-carboxylate], the figure is 0.84 nM; as for `CN1[C@@H]2COC[C@H]1CC(OC(=O)c1cn(CC(F)(F)F)c3ncccc13)C2` (stereo partly drawn) [Example 49, (1R,5S,7S)-9-methyl-3-oxa-9-azabicyclo[3.3.1]nonan-7-yl 1-(2,2,2-trifluoroethyl)-1H-pyrrolo[2,3-b]pyridine-3-carboxylate, 2,2,2-trifluoroacetate], 1.82 nM.
For `O=C(OC1C[C@H]2COC[C@@H](C1)N2CCF)c1cn(CC(F)(F)F)c2ccc(F)cc12` (stereo partly drawn) [Example 50, (1R,5S,7S)-9-(2-fluoroethyl)-3-oxa-9-azabicyclo[3.3.1]nonan-7-yl 5-fluoro-1-(2,2,2-trifluoroethyl)-1H-indole-3-carboxylate, 2,2,2-trifluoroacetate] the value was 13 nM; for `CN1[C@@H]2COC[C@H]1CC(NC(=O)c1cn(CC(F)(F)F)c3ncc(F)cc13)C2` (stereo partly drawn) [Example 52, 5-fluoro-N-((1R,5S,7S)-9-methyl-3-oxa-9-azabicyclo[3.3.1]-nonan-7-yl)-1-(2,2,2-trifluoroethyl)-1H-pyrrolo[2,3-b]pyridine-3-carboxamide, 2,2,2-trifluoroacetate], 1.05 nM.
As for `CN1[C@@H]2COC[C@H]1C[C@@H](NC(=O)c1cn(C(F)(F)C(F)F)c3ncc(F)cc13)C2` [Example 53, 5-fluoro-N-((1R,5S,7S)-9-methyl-3-oxa-9-azabicyclo[3.3.1]-nonan-7-yl)-1-(1,1,2,2-tetrafluoroethyl)-1H-pyrrolo[2,3-b]pyridine-3-carboxamide, 2,2,2-trifluoroacetate], the figure is 1.05 nM; as for `CC(C)S(=O)(=O)n1cc(C(=O)OC2C[C@H]3COC[C@@H](C2)N3)c2cc(F)ccc21` (stereo partly drawn) [Example 54, (1R,5S,7S)-3-oxa-9-azabicyclo[3.3.1]nonan-7-yl 5-fluoro-1-(isopropylsulfonyl)-1H-indole-3-carboxylate, 2,2,2-trifluoroacetate], 5.61 nM; as for `CN1[C@@H]2CC[C@H]1CC(OC(=O)c1c(Cl)n(CCF)c3ccccc13)C2` (stereo partly drawn) [Example 55, (1R,3R,5S)-8-methyl-8-azabicyclo[3.2.1]octan-3-yl 2-chloro-1-(2-fluoroethyl)-1H-indole-3-carboxylate, 2,2,2-trifluoroacetate], 0.9 nM.
`CN1C2CCC1CC(OC(=O)c1nn(CCF)c3ccccc13)C2` [Example 57, (1R,3R,5S)-8-methyl-8-azabicyclo[3.2.1]octan-3-yl 1-(2-fluoroethyl)-1H-indazole-3-carboxylate, 2,2,2-trifluoroacetate]: the IC50 is over 1000 nM.
Turning to `CN1[C@@H]2COC[C@H]1CC(OC(=O)c1cn(CC(F)F)c3ccc(F)cc13)C2` (stereo partly drawn) [Example 58, (1R,5S,7S)-9-methyl-3-oxa-9-azabicyclo[3.3.1]nonan-7-yl 1-(2,2-difluoroethyl)-5-fluoro-1H-indole-3-carboxylate, 2,2,2-trifluoroacetate], the IC50 was 0.24 nM.
For `O=C(OC1CC2COCC(C1)N2)c1cn(CC(F)(F)F)c2ccc(F)cc12` [Example 59, (1R,5S,7S)-3-oxa-9-azabicyclo[3.3.1]nonan-7-yl 5-fluoro-1-(2,2,2-trifluoroethyl)-1H-indole-3-carboxylate, 2,2,2-trifluoroacetate] the value was 2.36 nM.
As for `CN1[C@@H]2CCC[C@H]1CC(OC(=O)c1cn(CC(F)F)c3ccc(F)cc13)C2` (stereo partly drawn) [Example 60, (1R,3R,5S)-9-methyl-9-azabicyclo[3.3.1]nonan-3-yl 1-(2,2-difluoroethyl)-5-fluoro-1H-indole-3-carboxylate, 2,2,2-trifluoroacetate], the figure is 0.44 nM.

Usually IC50 stands for the midpoint of a concentration-inhibition curve.
